Several values for one entry are separate records, joined by “and”; a condition that tells them apart may be missing. Equal values may be shown once. Read-outs that look alike come from different tables or passages of the source. Values belong to the compound of their own block, whether it stands above or below them. Square brackets hold non-standard residues; d marks the D form. Peptide text beside a SMILES is read from it. d2Nal = N[C@H](Cc1ccc2ccccc2c1)C(=O)O; Aib = CC(C)(N)C(=O)O
Tests used:
rat GHS-receptor (GHR-R) = molecular target: T1, rat GHS-receptor (GHR-R) (Rattus norvegicus, UniProt O08725); assay: Ca-releasing activity (increase in intracellular calcium) in CHO-GHSR62 cells, FLIPR; type: cell-based
T1 construct: A full-length cDNA for rat GHR-R was obtained by RT-PCR; expressed in transfected cells
Summary of the method: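 CHO cells stably expressing full-length rat GHS-R (CHO-GHSR62) were cultured 12–15 h, loaded with 4 μM Fluo4 for 1 h and washed with Hank's BSS containing 20 mM Hepes and 2.5 mM probenecid. Ca-releasing activity of ghrelin peptides, fragments or derivatives was read by FLIPR as the fluorescence change after sample addition.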

[1] = system: rat pituitary cultured cells; assay: Intracellular calcium change in primary anterior pituitary cells; type: cell-based; conditions: FIG. 5a
[2] = system: amino-terminal antibody (anti-[C-Cys]-rat ghrelin [1-11] antigen); assay: Radioimmunoassay: inhibition of binding of labeled rat ghrelin to amino-terminal antibody; parameters: species or system rabbit
[3] = molecular target: carboxyl-terminal antibody (anti-[C-Cys]-rat ghrelin [13-28] antigen); assay: Radioimmunoassay: inhibition of binding of labeled rat ghrelin to carboxyl-terminal antibody; parameters: species or system rabbit; conditions: FIG. 9b, amount per reaction tube
Description: Using antibodies raised against amino- and carboxyl-terminal rat ghrelin peptides as antigens, ghrelin in various living tissues was quantified by radioimmunoassay (RIA).
Rabbits were immunized with [C-Cys]-rat ghrelin [1-11] (rat ghrelin peptide of amino acids 1 to 11 from amino-terminal having cysteine bound to the carboxyl-terminal thereof) and [C-Cys]-rat ghrelin [13-28] (rat ghrelinpeptideof aminoacids 13 to 28 from amino-terminal having cysteine bound to the carboxyl-terminal thereof) as antigens, to form amino-terminal antibody (anti-[C-Cys]-rat ghrelin [1-11] antigen) and carboxyl-terminal antibody (anti-[C-Cys]-rat ghrelin [13-28] antigen) respectively.
That is, it was confirmed that the carboxyl-terminal antibodyhas the same affinity for ghrelin modified with fatty acid and for ghrelin from which fatty acid was released.

IGS-SD strain rats = assay: GH-releasing activity of long-chain ghrelin derivatives in rat (plasma GH 15 min after i.v.); type: in vivo; conditions: for GH level in plasma in 15 min. after administration, M ± S.D.: n=3; for GH level in plasma in 15 min. after administration, individual rats (Rat 1-3): rats under Nembutal
Experimental: Fifteen minutes after administration, plasma was collected, and the concentration of GH in plasma was measured by radioimmunoassay (Biotrak/Amersham). Separately, 0.2% bovine serum albumin (BSA)-physiological saline, 6 nmol/kg rGhrelin and hGhrelin, or 80 nmol/kg Ipamorelin (Compound 80) was administered into other rats as the control, respectively, and the concentrations of GH in plasma in 15 minutes after administration were compared (for each sample, n=3).

Wistar strain male rats = assay: Change of GH level in plasma over time after i.v. administration; type: in vivo, rat; conditions: 5 μg/head i.v.; for GH level in plasma, individual rats (Rat 1-5): listed as [Cys^3(Octyl)]-rat ghrelin
Experimental: Physiological saline as the control and rat ghrelin (5 μg/head) were also administered and compared with Compound 18.

Wister male rats = assay: Cell growth: 3H-thymidine incorporation into bone marrow, duodenum, jejunum; type: in vivo, rat; conditions: 20 μg/kg i.v., 18 hours after administration
Experimental: To examine the action of administered ghrelin on promotion of cell growth, the f ollowing experiment was conducted. Twenty μg/kg of rat ghrelin or thioether-type rat ghrelin (Compound 18 [Cys^3(octyl)]-hghrelin) was administered into tail veins of Wister male rats (7.5-week-old) respectively. Seventeen hours after administration, ^3H-thymidine was administered into tail veins, and 1 hour thereafter, duodenum, jejunum and bone marrow were excised. The incorporation of […] to DNA fractions of these tissues was measured in order to examine the cell growth-promoting action of ghrelin and ghrelin derivatives. The tissues were cut thin and homogenized using a Polytron homogenizer, and after centrifugation, the supernatant was precipitated with trichloroacetic acid to give a DNA fraction. The radioactivity of the DNA fraction was measured by a liquid scintillation counter.
Numerical values show the ratio (%) of incorporation of radioisotope relative to the mean (in triplicate) of the comparative example (i.e. the group given physiological saline).

[4] = CHO-GHSR62 cells (CHO cells expressing rat GHS receptor), FLIPR, read-out: Ca-releasing activity EC50

T1 sequence (O08725 whole entry): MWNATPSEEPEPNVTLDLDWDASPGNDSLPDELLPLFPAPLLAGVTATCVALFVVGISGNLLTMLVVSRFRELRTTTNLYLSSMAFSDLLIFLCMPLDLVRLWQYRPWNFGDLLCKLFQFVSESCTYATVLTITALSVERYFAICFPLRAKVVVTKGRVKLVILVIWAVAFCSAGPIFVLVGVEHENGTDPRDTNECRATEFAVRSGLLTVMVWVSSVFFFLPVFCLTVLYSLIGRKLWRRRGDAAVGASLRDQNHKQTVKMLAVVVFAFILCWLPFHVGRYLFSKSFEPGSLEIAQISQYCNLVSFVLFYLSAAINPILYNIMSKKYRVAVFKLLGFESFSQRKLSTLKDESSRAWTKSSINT

SMILES: CC(C)C[C@H](NC(=O)[C@H](CCCCN)NC(=O)[C@H](C)NC(=O)[C@@H]1CCCN1C(=O)[C@@H]1CCCN1C(=O)[C@H](CCCCN)NC(=O)[C@H](CCCCN)NC(=O)[C@H](CO)NC(=O)[C@H](CCC(=O)O)NC(=O)[C@H](CCCCN)NC(=O)[C@H](CCCNC(=N)N)NC(=O)[C@H](CCC(N)=O)NC(=O)[C@H](CCC(N)=O)NC(=O)[C@H](C)NC(=O)[C@H](CCCCN)NC(=O)[C@H](CCC(N)=O)NC(=O)[C@H](Cc1c[nH]cn1)NC(=O)[C@H](CCC(=O)O)NC(=O)[C@@H]1CCCN1C(=O)[C@H](CO)NC(=O)[C@H](CC(C)C)NC(=O)[C@H](Cc1ccccc1)NC(=O)[C@H](CO)NC(=O)[C@H](CO)NC(=O)CN)C(=O)N[C@@H](CCC(N)=O)C(=O)N1CCC[C@H]1C(=O)N[C@@H](CCCNC(=N)N)C(=O)O [Compound 7, [Ser^3]-rat Ghrelin]
Ca-releasing activity (in words) (rat GHS-receptor (GHR-R); CHO-GHSR62 cells): did not show a significant Ca-releasing activity | change in intracellular calcium ion concentration [1]: slightly increased Ca-releasing activity | reaction / affinity with the amino-terminal antibody (in words) [2]: did not react | IC50 in binding between radioisotope-labeled rat ghrelin and the carboxyl-terminal antibody [3]: 44 fmol

SMILES: CCCCCC(=O)OC[C@H](NC(=O)[C@H](CO)NC(=O)CN)C(=O)N[C@@H](Cc1ccccc1)C(=O)N[C@@H](CC(C)C)C(=O)N[C@@H](CO)C(=O)N1CCC[C@H]1C(=O)N[C@@H](CCC(=O)O)C(=O)N[C@@H](Cc1c[nH]cn1)C(=O)N[C@@H](CCC(N)=O)C(=O)N[C@@H](CCCCN)C(=O)N[C@@H](C)C(=O)N[C@@H](CCC(N)=O)C(=O)N[C@@H](CCC(N)=O)C(=O)N[C@@H](CCCNC(=N)N)C(=O)N[C@@H](CCCCN)C(=O)N[C@@H](CCC(=O)O)C(=O)N[C@@H](CO)C(=O)N[C@@H](CCCCN)C(=O)N[C@@H](CCCCN)C(=O)N1CCC[C@H]1C(=O)N1CCC[C@H]1C(=O)N[C@@H](C)C(=O)N[C@@H](CCCCN)C(=O)N[C@@H](CC(C)C)C(=O)N[C@@H](CCC(N)=O)C(=O)N1CCC[C@H]1C(=O)N[C@@H](CCCNC(=N)N)C(=O)O [Compound 11, [Ser^3(Hexanoyl)]-rGhrelin]
EC50 (rat GHS-receptor (GHR-R); [4]): 16 nM | cross-reactivity with the amino-terminal antibody [2]: 0.3%

SMILES: CCCCCCCCSC[C@H](NC(=O)[C@H](CO)NC(=O)CN)C(=O)N[C@@H](Cc1ccccc1)C(=O)N[C@@H](CC(C)C)C(=O)N[C@@H](CO)C(=O)N1CCC[C@H]1C(=O)N[C@@H](CCC(=O)O)C(=O)N[C@@H](Cc1c[nH]cn1)C(=O)N[C@@H](CCC(N)=O)C(=O)N[C@@H](CCCCN)C(=O)N[C@@H](C)C(=O)N[C@@H](CCC(N)=O)C(=O)N[C@@H](CCC(N)=O)C(=O)N[C@@H](CCCNC(=N)N)C(=O)N[C@@H](CCCCN)C(=O)N[C@@H](CCC(=O)O)C(=O)N[C@@H](CO)C(=O)N[C@@H](CCCCN)C(=O)N[C@@H](CCCCN)C(=O)N1CCC[C@H]1C(=O)N1CCC[C@H]1C(=O)N[C@@H](C)C(=O)N[C@@H](CCCCN)C(=O)N[C@@H](CC(C)C)C(=O)N[C@@H](CCC(N)=O)C(=O)N1CCC[C@H]1C(=O)N[C@@H](CCCNC(=N)N)C(=O)O [Compound 18, [Cys^3(Octyl)]-rGhrelin]
EC50 (rat GHS-receptor (GHR-R); [4]): 5.4 nM | GH level in plasma in 15 min. after administration, M ± S.D. (IGS-SD strain rats; dose 30 nmol/kg i.v.): 2494 ± 253 ng/mL | GH level in plasma in 15 min. after administration, individual rats (Rat 1-3) (IGS-SD strain rats; dose 30 nmol/kg i.v.): 2786 ng/mL and 2342 ng/mL and 2354 ng/mL | GH-releasing activity (in words) (IGS-SD strain rats; i.v., plasma GH at 15 minutes): strong GH-releasing activity | GH level in plasma, Mean ± S.D. (Wistar strain male rats; time 0 min): 120 ± 146 ng/mL | GH level in plasma, individual rats (Rat 1-5) (Wistar strain male rats; time 0 min): 33 ng/mL and 32 ng/mL and 377 ng/mL and 101 ng/mL and 59 ng/mL | GH level in plasma, Mean ± S.D. (Wistar strain male rats; time 5 min): 450 ± 133 ng/mL | GH level in plasma, individual rats (Rat 1-5) (Wistar strain male rats; time 5 min): 530 ng/mL and 613 ng/mL and 338 ng/mL and 294 ng/mL and 476 ng/mL | GH level in plasma, Mean ± S.D. (Wistar strain male rats; time 10 min): 783 ± 324 ng/mL | GH level in plasma, individual rats (Rat 1-5) (Wistar strain male rats; time 10 min): 959 ng/mL and 1060 ng/mL and 687 ng/mL and 258 ng/mL and 949 ng/mL | GH level in plasma, Mean ± S.D. (Wistar strain male rats; time 15 min): 1093 ± 506 ng/mL | GH level in plasma, individual rats (Rat 1-5) (Wistar strain male rats; time 15 min): 1451 ng/mL and 1561 ng/mL and 927 ng/mL and 300 ng/mL and 1229 ng/mL | GH level in plasma, Mean ± S.D. (Wistar strain male rats; time 20 min): 1067 ± 445 ng/mL | GH level in plasma, individual rats (Rat 1-5) (Wistar strain male rats; time 20 min): 1299 ng/mL and 1359 ng/mL and 900 ng/mL and 358 ng/mL and 1417 ng/mL | GH level in plasma, Mean ± S.D. (Wistar strain male rats; time 30 min): 589 ± 229 ng/mL | GH level in plasma, individual rats (Rat 1-5) (Wistar strain male rats; time 30 min): 800 ng/mL and 726 ng/mL and 469 ng/mL and 245 ng/mL and 704 ng/mL | GH level in plasma, Mean ± S.D. (Wistar strain male rats; time 60 min): 132 ± 53 ng/mL | GH level in plasma, individual rats (Rat 1-5) (Wistar strain male rats; time 60 min): 220 ng/mL and 122 ng/mL and 98 ng/mL and 86 ng/mL and 133 ng/mL | incorporation of 3H-thymidine relative to the mean of the physiological saline group, Bone marrow (in tissues) (Wister male rats): 144.5% | incorporation of 3H-thymidine relative to the mean of the physiological saline group, Duodenum (in DNA fraction) (Wister male rats): 114.0% | incorporation of 3H-thymidine relative to the mean of the physiological saline group, Jejunum (in DNA fraction) (Wister male rats): 151.0%

Further compounds by falling EC50 (rat GHS-receptor (GHR-R); [4]), results first:

EC50 (rat GHS-receptor (GHR-R); [4]): 2.5 nM
SMILES: CC(C)(N)C(=O)N[C@@H](Cc1c[nH]cn1)C(=O)N[C@H](Cc1ccc2ccccc2c1)C(=O)N[C@H](Cc1ccccc1)C(=O)N[C@@H](CCCCN)C(N)=O [Compound 80, [Aib^1, His^2, ^DNal^3, ^DPhe^4, Lys^5]-Ghrelin (1-5)-amide, reference compound] (H-[Aib]H[d2Nal][dF]K-NH2)
GH level in plasma in 15 min. after administration, M ± S.D. (IGS-SD strain rats; dose 80 nmol/kg i.v.): 607 ± 503 ng/mL | GH level in plasma in 15 min. after administration, individual rats (Rat 1-3) (IGS-SD strain rats; dose 80 nmol/kg i.v., listed as Ipamorelin): 377 ng/mL and 260 ng/mL and 1184 ng/mL

EC50 (rat GHS-receptor (GHR-R); [4]): 1.7 nM | EC50 (rat GHS-receptor (GHR-R); Table 3, Example 9: protease fragments or synthetic peptides, CHO-GHSR62 cells, read-out: Ca-releasing activity (EC50)): 2.6 nM | cross-reactivity with the amino-terminal antibody [2]: 20%
SMILES: CCCCCCCCCC(=O)OC[C@H](NC(=O)[C@H](CO)NC(=O)CN)C(=O)N[C@@H](Cc1ccccc1)C(=O)N[C@@H](CC(C)C)C(=O)N[C@@H](CO)C(=O)N1CCC[C@H]1C(=O)N[C@@H](CCC(=O)O)C(=O)N[C@@H](Cc1c[nH]cn1)C(=O)N[C@@H](CCC(N)=O)C(=O)N[C@@H](CCCCN)C(=O)N[C@@H](C)C(=O)N[C@@H](CCC(N)=O)C(=O)N[C@@H](CCC(N)=O)C(=O)N[C@@H](CCCNC(=N)N)C(=O)N[C@@H](CCCCN)C(=O)N[C@@H](CCC(=O)O)C(=O)N[C@@H](CO)C(=O)N[C@@H](CCCCN)C(=O)N[C@@H](CCCCN)C(=O)N1CCC[C@H]1C(=O)N1CCC[C@H]1C(=O)N[C@@H](C)C(=O)N[C@@H](CCCCN)C(=O)N[C@@H](CC(C)C)C(=O)N[C@@H](CCC(N)=O)C(=O)N1CCC[C@H]1C(=O)N[C@@H](CCCNC(=N)N)C(=O)O [Compound 12, [Ser^3(Decanoyl)]-rGhrelin]
